This note sets out measurements from ChEMBL document CHEMBL1157566, “Cytotoxic and anti-inflammatory cembranoids from the Dongsha Atoll soft coral Sarcophyton crassocaule” (2010).

≈ marks a conversion by molar mass, not a printed value.

The first assay relates to MCF7. Description: Cytotoxicity against human MCF7 cells by MTT assay. In kind it is functional. Particulars: read-out: ED50 (the source's name). (Tetrazolium dyes change colour on reduction, which living cells bring about.)
As to `C=C1C(=O)O[C@@H]2[C@@H]1C[C@H](O)[C@@]1(C)CC[C@@H](O1)C(=C)CC/C=C(\C)[C@@H]2OC(C)=O` [SARCOCRASSOCOLIDE A], the EC50 turned out to be 4.2 µg/mL (≈ 10.8 µM).

Consider `C=C1C(=O)O[C@H]2C/C(C)=C/CCC(=C)[C@H]3CC[C@@](C)(O3)[C@@H](O)C[C@H]12` [SARCOCRASSOCOLIDE C], for which the EC50 is 2 µg/mL (≈ 6.02 µM).

For `CO[C@@]12[C@H](COC(N)=O)C3=C(C(=O)C(C)=C(N)C3=O)N1C[C@@H]1N[C@@H]12` [MITOMYCIN], the EC50 worked out at 0.14 µg/mL (≈ 0.419 µM).

For the compound `C=C1CC/C=C(\C)[C@H](OC(C)=O)[C@@H]2OC(=O)C(=C)[C@H]2C[C@H](O)[C@@]2(C)CC[C@@H]1O2` [SARCOCRASSOCOLIDE B], the EC50 is 3.2 µg/mL (≈ 8.2 µM).

For the compound `C=C1CC/C=C(\C)C[C@@H]2OC(=O)C(=C)[C@H]2C[C@H](O)[C@@]2(C)CC[C@@H]1O2` [SARCOCRASSOCOLIDE D], the EC50 stood at 4.1 µg/mL (≈ 12.3 µM).

For a further assay, the system named is WiDr. Description: Cytotoxicity against human WiDr cells by MTT assay. Format: functional. Particulars: read-out: ED50 (the source's name).
Turning to `C=C1C(=O)O[C@@H]2[C@@H]1C[C@H](O)[C@@]1(C)CC[C@@H](O1)C(=C)CC/C=C(\C)[C@@H]2OC(C)=O` [SARCOCRASSOCOLIDE A], the EC50 was determined as 4.2 µg/mL (≈ 10.8 µM).

Turning to `C=C1C(=O)O[C@H]2C/C(C)=C/CCC(=C)[C@H]3CC[C@@](C)(O3)[C@@H](O)C[C@H]12` [SARCOCRASSOCOLIDE C], the EC50 was 1.2 µg/mL (≈ 3.61 µM).

On to `CO[C@@]12[C@H](COC(N)=O)C3=C(C(=O)C(C)=C(N)C3=O)N1C[C@@H]1N[C@@H]12` [MITOMYCIN], for which the EC50 is 0.15 µg/mL (≈ 0.449 µM).

For `C=C1CC/C=C(\C)[C@H](OC(C)=O)[C@@H]2OC(=O)C(=C)[C@H]2C[C@H](O)[C@@]2(C)CC[C@@H]1O2` [SARCOCRASSOCOLIDE B], the EC50 turned out to be 3.2 µg/mL (≈ 8.2 µM).

As to `C=C1CC/C=C(\C)C[C@@H]2OC(=O)C(=C)[C@H]2C[C@H](O)[C@@]2(C)CC[C@@H]1O2` [SARCOCRASSOCOLIDE D], the EC50 is 1.8 µg/mL (≈ 5.41 µM).

A further assay relates to HEp-2. Description: Cytotoxicity against human Hep2 cells by MTT assay. In kind it is functional. Particulars: read-out: ED50 (the source's name).
Turning to `C=C1C(=O)O[C@@H]2[C@@H]1C[C@H](O)[C@@]1(C)CC[C@@H](O1)C(=C)CC/C=C(\C)[C@@H]2OC(C)=O` [SARCOCRASSOCOLIDE A], the EC50 came to 6.2 µg/mL (≈ 15.9 µM).

With `C=C1C(=O)O[C@H]2C/C(C)=C/CCC(=C)[C@H]3CC[C@@](C)(O3)[C@@H](O)C[C@H]12` [SARCOCRASSOCOLIDE C], the EC50 is 2.6 µg/mL (≈ 7.82 µM).

As for `CO[C@@]12[C@H](COC(N)=O)C3=C(C(=O)C(C)=C(N)C3=O)N1C[C@@H]1N[C@@H]12` [MITOMYCIN], the EC50 is 0.07 µg/mL (≈ 0.209 µM).

With `C=C1CC/C=C(\C)[C@H](OC(C)=O)[C@@H]2OC(=O)C(=C)[C@H]2C[C@H](O)[C@@]2(C)CC[C@@H]1O2` [SARCOCRASSOCOLIDE B], the EC50 worked out at 4.5 µg/mL (≈ 11.5 µM).

Take `C=C1CC/C=C(\C)C[C@@H]2OC(=O)C(=C)[C@H]2C[C@H](O)[C@@]2(C)CC[C@@H]1O2` [SARCOCRASSOCOLIDE D]: the EC50 stood at 4 µg/mL (≈ 12 µM).

A further assay has as its system Daoy. Description: Cytotoxicity against human DaOY cells by MTT assay. Format: functional. Particulars: read-out: ED50 (the source's name).
Regarding `C=C1C(=O)O[C@@H]2[C@@H]1C[C@H](O)[C@@]1(C)CC[C@@H](O1)C(=C)CC/C=C(\C)[C@@H]2OC(C)=O` [SARCOCRASSOCOLIDE A], the EC50 is 8.8 µg/mL (≈ 22.5 µM).

In the case of `C=C1C(=O)O[C@H]2C/C(C)=C/CCC(=C)[C@H]3CC[C@@](C)(O3)[C@@H](O)C[C@H]12` [SARCOCRASSOCOLIDE C], the EC50 came out at 3.2 µg/mL (≈ 9.63 µM).

Turning to `CO[C@@]12[C@H](COC(N)=O)C3=C(C(=O)C(C)=C(N)C3=O)N1C[C@@H]1N[C@@H]12` [MITOMYCIN], the EC50 was determined as 0.14 µg/mL (≈ 0.419 µM).

`C=C1CC/C=C(\C)[C@H](OC(C)=O)[C@@H]2OC(=O)C(=C)[C@H]2C[C@H](O)[C@@]2(C)CC[C@@H]1O2` [SARCOCRASSOCOLIDE B]: the EC50 came to 5.6 µg/mL (≈ 14.3 µM).

Consider `C=C1CC/C=C(\C)C[C@@H]2OC(=O)C(=C)[C@H]2C[C@H](O)[C@@]2(C)CC[C@@H]1O2` [SARCOCRASSOCOLIDE D], for which the EC50 is 5.4 µg/mL (≈ 16.2 µM).

A further assay deals with RAW264.7. As to the kind of experiment: Antiinflammatory activity in mouse RAW264.7 cells assessed as inhibition of LPS-stimulated iNOS protein expression by measuring iNOS protein level at 10 uM by Western blot relative to untreated control. Format: functional.
Settings: not given
(In general: Immunoblotting shows a protein as a band on a membrane.)
As to `C=C1C(=O)O[C@@H]2[C@@H]1C[C@H](O)[C@@]1(C)CC[C@@H](O1)C(=C)CC/C=C(\C)[C@@H]2OC(C)=O` [SARCOCRASSOCOLIDE A], the “iNOS protein level relative to control” value stood at 13.7%.

For `C=C1C(=O)O[C@H]2[C@H]1C[C@@H]1O[C@@]1(C)CC/C=C(\C)CC/C=C(\C)[C@@H]2OC(C)=O`, the “iNOS protein level relative to control” value came out at 6.2%.

In the case of `C=C1C(=O)O[C@@H]2C/C(C)=C/CC/C(C)=C/CC[C@]3(C)O[C@H]3C[C@@H]12` [SARCOCRASSOLIDE], the “iNOS protein level relative to control” value was 1.1%.

Consider `C=C1C(=O)O[C@H]2C/C(C)=C/CCC(=C)[C@H]3CC[C@@](C)(O3)[C@@H](O)C[C@H]12` [SARCOCRASSOCOLIDE C], for which the “iNOS protein level relative to control” value came to 4.6%.

Regarding `C=C1CC/C=C(\C)[C@H](OC(C)=O)[C@@H]2OC(=O)C(=C)[C@H]2C[C@H](O)[C@@]2(C)CC[C@@H]1O2` [SARCOCRASSOCOLIDE B], the “iNOS protein level relative to control” value worked out at 13.3%.

For `C=C1CC/C=C(\C)C[C@@H]2OC(=O)C(=C)[C@H]2C[C@H](O)[C@@]2(C)CC[C@@H]1O2` [SARCOCRASSOCOLIDE D], the “iNOS protein level relative to control” value was found to be 7%.

In a further assay the test system is RAW264.7. As to the kind of experiment: Antiinflammatory activity in mouse RAW264.7 cells assessed as inhibition of LPS-stimulated COX2 protein expression by measuring COX2 protein level at 10 uM by Western blot relative to untreated control. Format: functional. Also noted: scale not given: the % may be the effect or the level left.
Settings: not given
For `C=C1C(=O)O[C@@H]2C/C(C)=C/CC/C(C)=C/CC[C@]3(C)O[C@H]3C[C@@H]12` [SARCOCRASSOLIDE], the Activity is 3.9%.
